Measured values from US20230085307A1, “PYRIDAZINONE COMPOUND AND HERBICIDE” (NISSAN CHEMICAL CORPORATION, priority 2019, published 2023).

Experiments:
[1] = system: late watergrass; assay: Test Example 1: herbicidal activity, application before weed generation under submerged conditions (Table 16, symbol A); type: in vivo, late watergrass (Echinochloa oryzicola); conditions: amount of applied herbicide 320 g/ha
Source text: (§1) [Test Example 1] Herbicidal Activity Test by Application before Weed Generation under Submerged Conditions After alluvial soil was placed into 1/10000 are of Wagner pot, water was poured and mixed to form a submerged condition having a water depth of 4 cm. Seeds of late watergrass, Japanese bulrush, and oval-leafed pondweed were sowed in a mixed manner in the aforementioned pot, and then 2.5 leaf stage rice plant seedlings were transplanted thereto. On the day of sowing seeds, the emulsion agent of the compound of the present invention prepared according to Formulation Example 2 was diluted with water so as to achieve a predetermined herbicide amount, and the diluted emulsion agent was applied to the surface of the water. The pot was placed in a greenhouse at 25° C. to 30° C. for growth of the plants. Three weeks after the herbicide application, the effect of the herbicide on each plant was evaluated according to the following criteria. Evaluation Criteria 5: Herbicidal rate of 90% or more (almost completely withered) 4: Herbicidal rate of 70% or more and less than 90% 3: Herbicidal rate of 40% or more and less than 70% 2: Herbicidal rate of 20% or more and less than 40% 1: Herbicidal rate of 5% or more and less than 20% 0: Herbicidal rate of 5% or less (almost no effect)

[2] = system: Japanese bulrush; assay: Test Example 1: herbicidal activity, application before weed generation under submerged conditions (Table 16, symbol B); type: in vivo, Japanese bulrush (Schoenoplectus juncoides); conditions: amount of applied herbicide 320 g/ha
Outline: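 Submerged Wagner pots (alluvial soil, 4 cm water) sown with weed seeds and planted with 2.5-leaf rice seedlings; emulsifiable concentrate diluted in water applied to water surface on sowing day. Held in greenhouse at 25-30 °C; injury scored 0-5 by herbicidal rate after three weeks.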

[3] = system: oval-leafed pondweed; assay: Test Example 1: herbicidal activity, application before weed generation under submerged conditions (Table 16, symbol C); type: in vivo, oval-leafed pondweed (Monochoria vaginalis); conditions: amount of applied herbicide 320 g/ha
Source text: as §1

[4] = system: barnyard grass; assay: Test Example 3: herbicidal effect by foliage application, Wagner pot (Table 18, symbol H); type: in vivo, barnyard grass (Echinochloa crus-galli)
Outline: (§2)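 Plants were sown in alluvial soil held under 0.1–0.5 cm standing water and grown 14 days in a greenhouse at 25–30 °C. An emulsifiable formulation, water-diluted to the set dose, was then sprayed onto the foliage, and effects were scored three weeks later using previously defined criteria.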

[5] = system: Chinese sprangletop; assay: Test Example 3: herbicidal effect by foliage application, Wagner pot (Table 18, symbol D); type: in vivo, chinese sprangletop (Leptochloa chinensis)
Outline: as §2

[6] = system: rice flat sedge; assay: Test Example 3: herbicidal effect by foliage application, Wagner pot (Table 18, symbol E); type: in vivo, rice flat sedge (Cyperus iria)
Outline: as §2

[7] = system: southern crabgrass; assay: Test Example 4: herbicidal effect by soil treatment (Table 19, symbol F); type: in vivo, southern crabgrass (Digitaria ciliaris); conditions: amount of applied herbicide 320 g/ha
Outline: (§3)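 Pre-emergence style soil spray: seeds under ~1.5 cm sterilized diluvial soil received a uniform coat of emulsion diluted to the predetermined herbicide amount. Greenhouse 25–30° C; readout at week three on previously defined criteria.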

[8] = system: green foxtail; assay: Test Example 4: herbicidal effect by soil treatment (Table 19, symbol G); type: in vivo, green foxtail (Setaria viridis); conditions: amount of applied herbicide 320 g/ha
Outline: as §3

[9] = system: barnyard grass; assay: Test Example 4: herbicidal effect by soil treatment (Table 19, symbol H); type: in vivo, barnyard grass (Echinochloa crus-galli); conditions: amount of applied herbicide 320 g/ha
Outline: as §3

[10] = system: velvetleaf; assay: Test Example 4: herbicidal effect by soil treatment (Table 19, symbol M); type: in vivo, velvetleaf (Abutilon theophrasti); conditions: amount of applied herbicide 320 g/ha
Outline: as §3

[11] = system: redroot pigweed; assay: Test Example 4: herbicidal effect by soil treatment (Table 19, symbol N); type: in vivo, redroot pigweed (Amaranthus retroflexus); conditions: amount of applied herbicide 320 g/ha
Outline: as §3

[12] = system: lambsquarters; assay: Test Example 4: herbicidal effect by soil treatment (Table 19, symbol O); type: in vivo, lambsquarters (Chenopodium album); conditions: amount of applied herbicide 320 g/ha
Outline: as §3

[13] = system: southern crabgrass; assay: Test Example 5: herbicidal effect by foliage application, plastic box (Table 20, symbol F); type: in vivo, southern crabgrass (Digitaria ciliaris); conditions: foliage application, 320 g/ha, three weeks after application
Outline: (§4)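 Plants were sown into sterilized diluvial soil under about 1.5 cm cover and kept in a greenhouse at 25° C. to 30° C. Fourteen days on, foliage received an even spray of the diluted emulsion. Herbicidal or crop effect was judged three weeks afterwards.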

[14] = system: green foxtail; assay: Test Example 5: herbicidal effect by foliage application, plastic box (Table 20, symbol G); type: in vivo, green foxtail (Setaria viridis); conditions: foliage application, 320 g/ha, three weeks after application
Outline: as §4

[15] = system: barnyard grass; assay: Test Example 5: herbicidal effect by foliage application, plastic box (Table 20, symbol H); type: in vivo, barnyard grass (Echinochloa crus-galli); conditions: foliage application, 320 g/ha, three weeks after application
Outline: as §4

[16] = system: velvetleaf; assay: Test Example 5: herbicidal effect by foliage application, plastic box (Table 20, symbol M); type: in vivo, velvetleaf (Abutilon theophrasti); conditions: foliage application, 320 g/ha, three weeks after application
Outline: as §4

[17] = system: redroot pigweed; assay: Test Example 5: herbicidal effect by foliage application, plastic box (Table 20, symbol N); type: in vivo, redroot pigweed (Amaranthus retroflexus); conditions: foliage application, 320 g/ha, three weeks after application
Outline: as §4

[18] = system: lambsquarters; assay: Test Example 5: herbicidal effect by foliage application, plastic box (Table 20, symbol O); type: in vivo, lambsquarters (Chenopodium album); conditions: foliage application, 320 g/ha, three weeks after application
Outline: as §4

[19] = system: wild oat; assay: Test Example 5: herbicidal effect by foliage application, plastic box (Table 20, symbol I); type: in vivo, wild oat (Avena fatua); conditions: foliage application, 320 g/ha, three weeks after application
Outline: as §4

[20] = system: blackgrass; assay: Test Example 5: herbicidal effect by foliage application, plastic box (Table 20, symbol J); type: in vivo, blackgrass (Alopecurus myosuroides); conditions: foliage application, 320 g/ha, three weeks after application
Outline: as §4

[21] = system: Italian ryegrass; assay: Test Example 5: herbicidal effect by foliage application, plastic box (Table 20, symbol K); type: in vivo, Italian ryegrass (Lolium multiflorum); conditions: foliage application, 320 g/ha, three weeks after application
Outline: as §4

[22] = system: windgrass; assay: Test Example 5: herbicidal effect by foliage application, plastic box (Table 20, symbol L); type: in vivo, windgrass (Apera spica-venti); conditions: foliage application, 320 g/ha, three weeks after application
Outline: as §4

[23] = system: persian speedwell; assay: Test Example 5: herbicidal effect by foliage application, plastic box (Table 20, symbol R); type: in vivo, Persian speedwell (Veronica persica); conditions: foliage application, 320 g/ha, three weeks after application
Outline: as §4

[24] = amount of applied herbicide 320 g/ha

Cc1nn(C)c(=O)c(-c2c(-c3ccc(OCC=C(Cl)Cl)cc3)sc3ccc(F)cc23)c1O [2-442]
Herbicidal effect, A: late watergrass [1]: 3 (Herbicidal rate of 40% or more and less than 70%)
Herbicidal effect, B: Japanese bulrush [2]: 2 (Herbicidal rate of 20% or more and less than 40%)
Herbicidal effect, C: oval-leafed pondweed [3]: 2 (Herbicidal rate of 20% or more and less than 40%)
herbicidal effect on H: barnyard grass [4, 24]: 5 (Herbicidal rate of 90% or more (almost completely withered))
herbicidal effect on D: Chinese sprangletop [5, 24]: 2 (Herbicidal rate of 20% or more and less than 40%)
herbicidal effect on E: rice flat sedge [6, 24]: 3 (Herbicidal rate of 40% or more and less than 70%)
herbicidal effect, F: southern crabgrass [7]: 0 (Herbicidal rate of 5% or less (almost no effect))
herbicidal effect, G: green foxtail [8]: 0 (Herbicidal rate of 5% or less (almost no effect))
herbicidal effect, H: barnyard grass [9]: 0 (Herbicidal rate of 5% or less (almost no effect))
herbicidal effect, M: velvetleaf [10]: 0 (Herbicidal rate of 5% or less (almost no effect))
herbicidal effect, N: redroot pigweed [11]: 3 (Herbicidal rate of 40% or more and less than 70%)
herbicidal effect, O: lambsquarters [12]: 1 (Herbicidal rate of 5% or more and less than 20%)
F: southern crabgrass, herbicidal effect grade [13]: 3 (Herbicidal rate of 40% or more and less than 70%)
G: green foxtail, herbicidal effect grade [14]: 3 (Herbicidal rate of 40% or more and less than 70%)
H: barnyard grass, herbicidal effect grade [15]: 4 (Herbicidal rate of 70% or more and less than 90%)
M: velvetleaf, herbicidal effect grade [16]: 4 (Herbicidal rate of 70% or more and less than 90%)
N: redroot pigweed, herbicidal effect grade [17]: 5 (Herbicidal rate of 90% or more (almost completely withered))
O: lambsquarters, herbicidal effect grade [18]: 5 (Herbicidal rate of 90% or more (almost completely withered))

CCCC(=O)Oc1c(C)nn(C)c(=O)c1-c1c(-c2ccc(C(F)(F)F)cc2)sc2cc(C)c(C)cc12 [5-097]
Herbicidal effect, A: late watergrass [1]: 3 (Herbicidal rate of 40% or more and less than 70%)
Herbicidal effect, B: Japanese bulrush [2]: 0 (Herbicidal rate of 5% or less (almost no effect))
Herbicidal effect, C: oval-leafed pondweed [3]: 0 (Herbicidal rate of 5% or less (almost no effect))
herbicidal effect on barnyard grass (H) ([4]; 320 g/ha): 4 (Herbicidal rate of 70% or more and less than 90%)
herbicidal effect on Chinese sprangletop (D) ([5]; 320 g/ha): 2 (Herbicidal rate of 20% or more and less than 40%)
herbicidal effect on rice flat sedge (E) ([6]; 320 g/ha): 1 (Herbicidal rate of 5% or more and less than 20%)
herbicidal effect on southern crabgrass (F) [13]: 0 (Herbicidal rate of 5% or less (almost no effect))
herbicidal effect on green foxtail (G) [14]: 0 (Herbicidal rate of 5% or less (almost no effect))
herbicidal effect on barnyard grass (H) [15]: 0 (Herbicidal rate of 5% or less (almost no effect))
herbicidal effect on wild oat (I) [19]: 0 (Herbicidal rate of 5% or less (almost no effect))
herbicidal effect on blackgrass (J) [20]: 0 (Herbicidal rate of 5% or less (almost no effect))
herbicidal effect on Italian ryegrass (K) [21]: 0 (Herbicidal rate of 5% or less (almost no effect))
herbicidal effect on windgrass (L) [22]: 0 (Herbicidal rate of 5% or less (almost no effect))
herbicidal effect on velvetleaf (M) [16]: 0 (Herbicidal rate of 5% or less (almost no effect))
herbicidal effect on lambsquarters (O) [18]: 0 (Herbicidal rate of 5% or less (almost no effect))
herbicidal effect on persian speedwell (R) [23]: 0 (Herbicidal rate of 5% or less (almost no effect))
